In US11739098B2 (BRISTOL-MYERS SQUIBB COMPANY, priority 2017, dated 2023):
pIC50: −log10 of the molar value.

Tests used:
Type in all cases: cell-based
[1] = molecular target: T1, human TLR7 (Homo sapiens, UniProt Q9NYK1); assay: TLR7 inhibition reporter assay (HEK-Blue cells, SEAP reporter, gardiquimod stimulation); details: HEK-Blue cells overexpressing human TLR7, SEAP reporter, gardiquimod 7.5 μM
T1 construct: host or cells: HEK-Blue cells (HEK293-derived reporter line)
T1 sequence (Q9NYK1 27-1049): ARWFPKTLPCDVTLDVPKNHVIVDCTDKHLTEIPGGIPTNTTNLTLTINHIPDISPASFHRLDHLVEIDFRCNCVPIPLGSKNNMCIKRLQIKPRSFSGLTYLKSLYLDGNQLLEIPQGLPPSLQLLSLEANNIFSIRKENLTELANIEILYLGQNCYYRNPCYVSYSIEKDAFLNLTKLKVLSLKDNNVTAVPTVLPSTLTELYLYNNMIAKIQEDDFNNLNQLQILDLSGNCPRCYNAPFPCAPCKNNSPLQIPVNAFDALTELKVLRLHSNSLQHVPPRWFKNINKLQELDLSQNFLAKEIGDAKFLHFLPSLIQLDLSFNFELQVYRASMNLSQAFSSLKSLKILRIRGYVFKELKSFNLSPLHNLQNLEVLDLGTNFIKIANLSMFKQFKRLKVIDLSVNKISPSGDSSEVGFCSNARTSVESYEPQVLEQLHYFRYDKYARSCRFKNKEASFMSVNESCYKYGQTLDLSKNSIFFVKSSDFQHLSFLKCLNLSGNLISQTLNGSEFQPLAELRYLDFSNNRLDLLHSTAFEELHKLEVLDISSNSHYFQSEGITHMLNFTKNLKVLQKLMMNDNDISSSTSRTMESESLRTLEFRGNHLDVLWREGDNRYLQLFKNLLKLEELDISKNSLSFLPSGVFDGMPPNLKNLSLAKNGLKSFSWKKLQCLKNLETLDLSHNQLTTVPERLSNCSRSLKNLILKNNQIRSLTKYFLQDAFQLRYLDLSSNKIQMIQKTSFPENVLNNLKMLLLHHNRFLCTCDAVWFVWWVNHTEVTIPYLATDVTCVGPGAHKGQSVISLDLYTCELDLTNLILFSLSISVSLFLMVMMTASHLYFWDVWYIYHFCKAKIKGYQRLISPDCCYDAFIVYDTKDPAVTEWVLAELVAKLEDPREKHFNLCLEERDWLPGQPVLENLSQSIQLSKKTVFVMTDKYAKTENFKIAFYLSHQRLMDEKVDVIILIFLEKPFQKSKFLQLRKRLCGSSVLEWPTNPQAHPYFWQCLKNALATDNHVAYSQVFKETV
In short: (§1)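 Read-out is SEAP activity in HEK-Blue detection medium after 22 h at 37 °C, converted to percent inhibition against agonist-plus-DMSO and reference-inhibitor controls. Cells saw compound (0.05 nM–50 μM, 30 min, room temperature) before gardiquimod 7.5 μM, R848 15.9 μM or ODN2006 5 nM for TLR7, TLR8 and TLR9, respectively.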

[2] = molecular target: T2, human TLR9 (Homo sapiens, UniProt Q9NR96); assay: TLR9 inhibition reporter assay (HEK-Blue cells, SEAP reporter, ODN2006 stimulation); details: HEK-Blue cells overexpressing human TLR9, SEAP reporter, ODN2006 5 nM
T2 construct: host or cells: HEK-Blue cells (HEK293-derived reporter line)
T2 sequence (Q9NR96 26-1032): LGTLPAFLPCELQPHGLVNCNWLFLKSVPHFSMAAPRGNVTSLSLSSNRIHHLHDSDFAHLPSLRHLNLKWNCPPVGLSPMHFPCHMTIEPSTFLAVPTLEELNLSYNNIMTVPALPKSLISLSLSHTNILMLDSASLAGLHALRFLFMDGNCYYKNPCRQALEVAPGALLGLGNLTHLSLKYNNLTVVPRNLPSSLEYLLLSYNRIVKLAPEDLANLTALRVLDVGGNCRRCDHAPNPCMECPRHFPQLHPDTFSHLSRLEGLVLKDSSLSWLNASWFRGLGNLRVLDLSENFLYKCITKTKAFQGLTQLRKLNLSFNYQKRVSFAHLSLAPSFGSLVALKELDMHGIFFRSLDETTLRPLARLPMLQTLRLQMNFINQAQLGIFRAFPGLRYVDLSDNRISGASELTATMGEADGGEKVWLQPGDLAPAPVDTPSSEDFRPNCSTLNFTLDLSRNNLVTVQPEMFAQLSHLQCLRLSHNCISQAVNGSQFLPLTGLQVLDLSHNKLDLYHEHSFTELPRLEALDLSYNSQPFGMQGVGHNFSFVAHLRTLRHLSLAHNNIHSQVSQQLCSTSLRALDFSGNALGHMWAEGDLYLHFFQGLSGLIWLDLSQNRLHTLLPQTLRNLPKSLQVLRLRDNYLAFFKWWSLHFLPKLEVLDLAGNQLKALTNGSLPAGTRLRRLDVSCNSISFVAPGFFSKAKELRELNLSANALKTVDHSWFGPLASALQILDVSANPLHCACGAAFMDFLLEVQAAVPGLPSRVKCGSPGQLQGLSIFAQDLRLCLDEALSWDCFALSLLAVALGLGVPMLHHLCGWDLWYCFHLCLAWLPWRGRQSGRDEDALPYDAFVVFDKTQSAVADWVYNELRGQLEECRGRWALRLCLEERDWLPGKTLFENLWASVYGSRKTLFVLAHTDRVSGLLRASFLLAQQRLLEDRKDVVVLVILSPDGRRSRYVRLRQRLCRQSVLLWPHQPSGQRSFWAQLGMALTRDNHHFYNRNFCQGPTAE
In short: as §1

[3] = molecular target: T3, human TLR8 (Homo sapiens, UniProt Q9NR97); assay: TLR8 inhibition reporter assay (HEK-Blue cells, SEAP reporter, R848 stimulation); details: HEK-Blue cells overexpressing human TLR8, SEAP reporter, R848 15.9 μM
T3 construct: host or cells: HEK-Blue cells (HEK293-derived reporter line)
T3 sequence (Q9NR97 27-1041): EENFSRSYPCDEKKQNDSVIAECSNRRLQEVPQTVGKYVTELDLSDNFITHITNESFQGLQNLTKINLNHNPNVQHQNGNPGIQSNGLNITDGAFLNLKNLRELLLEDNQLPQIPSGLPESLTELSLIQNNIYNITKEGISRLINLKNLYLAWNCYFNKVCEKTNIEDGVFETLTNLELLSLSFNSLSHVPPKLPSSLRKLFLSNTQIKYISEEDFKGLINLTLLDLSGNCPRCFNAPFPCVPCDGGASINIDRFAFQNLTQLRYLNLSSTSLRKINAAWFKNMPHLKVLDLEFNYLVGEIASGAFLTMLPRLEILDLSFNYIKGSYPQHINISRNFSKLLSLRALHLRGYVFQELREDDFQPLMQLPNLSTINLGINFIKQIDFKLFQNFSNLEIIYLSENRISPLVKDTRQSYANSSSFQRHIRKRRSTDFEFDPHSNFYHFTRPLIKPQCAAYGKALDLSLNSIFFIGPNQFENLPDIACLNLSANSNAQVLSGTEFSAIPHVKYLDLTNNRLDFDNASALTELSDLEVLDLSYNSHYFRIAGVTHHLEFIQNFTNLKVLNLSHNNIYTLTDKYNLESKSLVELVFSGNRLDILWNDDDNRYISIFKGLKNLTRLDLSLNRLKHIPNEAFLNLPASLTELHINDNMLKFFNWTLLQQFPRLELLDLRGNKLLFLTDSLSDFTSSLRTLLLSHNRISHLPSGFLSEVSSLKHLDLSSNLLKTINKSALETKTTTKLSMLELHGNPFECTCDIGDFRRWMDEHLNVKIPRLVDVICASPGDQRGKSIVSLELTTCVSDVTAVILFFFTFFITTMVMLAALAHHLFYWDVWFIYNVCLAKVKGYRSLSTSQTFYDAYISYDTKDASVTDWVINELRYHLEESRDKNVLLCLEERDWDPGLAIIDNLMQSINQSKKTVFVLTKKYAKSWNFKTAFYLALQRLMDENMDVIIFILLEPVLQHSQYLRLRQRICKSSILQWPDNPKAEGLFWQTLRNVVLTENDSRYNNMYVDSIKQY
In short: as §1

pIC50 [1] | pIC50 [2] | pIC50 [3] | SMILES
> 7.00 | 4.30 to 6.00 | > 7.00 | CC(C)c1c(-c2ccnc3[nH]ncc23)[nH]c2ccc(C3CCN(C(=O)Cc4c[nH]cn4)CC3)cc12 [Example 612, 2-(1H-imidazol-4-yl)-1-(4-(3-isopropyl-2-(1H-pyrazolo[3,4-b]pyridin-4-yl)-1H-indol-5-yl)piperidin-1-yl)ethan-1-one]
6.00 to 7.00 | 4.30 to 6.00 | 6.00 to 7.00 | CC(C)c1c(-c2ccc3nncn3n2)[nH]c2ccc(C3CCNCC3)cc12 [Example 185, 6-(3-isopropyl-5-(piperidin-4-yl)-1H-indol-2-yl)-[1,2,4] triazolo[4,3-b]pyridazine]
> 7.00 | 4.30 to 6.00 | > 7.00 | CNC(=O)CN1CCC(c2ccc3[nH]c(-c4ccc(C#N)c5ncccc45)c(C(C)C)c3c2)CC1 [Example 371, 2-(4-(2-(8-cyanoquinolin-5-yl)-3-isopropyl-1H-indol-5-yl)piperidin-1-yl)-N-methylacetamide]
> 7.00 | 4.30 to 6.00 | > 7.00 | CCc1c(-c2ccnc3[nH]ncc23)[nH]c2ccc(C3CCN(C(=O)C4CCN(C)CC4)CC3)cc12 [Example 648, (4-(3-ethyl-2-(1H-pyrazolo[3,4-b]pyridin-4-yl)-1H-indol-5-yl)piperidin-1-yl)(1-methylpiperidin-4-yl)methanone]
> 7.00 | 4.30 to 6.00 | 6.00 to 7.00 | Cc1cc2nccn2cc1-c1[nH]c2ccc(C3CCN(CC(=O)N(C)C)CC3)cc2c1C(C)C [Example 431, 2-(4-(3-isopropyl-2-(7-methylimidazo[1,2-a]pyridin-6-yl)-1H-indol-5-yl)piperidin-1-yl)-N,N-dimethylacetamide]
> 7.00 | 4.30 to 6.00 | > 7.00 | Cc1cc(-c2[nH]c3ccc(C4CCN(CC(N)=O)CC4)cc3c2C(C)C)cc2cccnc12 [Example 436, 2-(4-(3-isopropyl-2-(8-methylquinolin-6-yl)-1H-indol-5-yl)piperidin-1-yl)acetamide]
6.00 to 7.00 | 6.00 to 7.00 | 6.00 to 7.00 | CNC(=O)CN1CCC(c2ccc3[nH]c(-c4cc(C)n5ccnc5c4)c(C(C)C)c3c2)CC1 [Example 355, 2-(4-(3-isopropyl-2-(5-methylimidazo[1,2-a]pyridin-7-yl)-1H-indol-5-yl)piperidin-1-yl)-N-methylacetamide]
6.00 to 7.00 | 4.30 to 6.00 | > 7.00 | Cc1cc(-c2[nH]c3ccc(C4CCNCC4)cc3c2C(C)C)cn2c(C#N)cnc12 [Example 130, 6-(3-isopropyl-5-(piperidin-4-yl)-1H-indol-2-yl)-8-methylimidazo[1,2-a]pyridine-3-carbonitrile]
> 7.00 | 4.30 to 6.00 | 4.30 to 6.00 | Cc1nc2cc(-c3[nH]c4ccc(C5CCN(C6COC6)CC5)cc4c3C(C)C)ccn2n1 [Example 728, 7-(3-isopropyl-5-(1-(oxetan-3-yl)piperidin-4-yl)-1H-indol-2-yl)-2-methyl-[1,2,4]triazolo[1,5-a]pyridine]
4.30 to 6.00 | 4.30 to 6.00 | 4.30 to 6.00 | CCc1c(-c2cc3ccccc3o2)[nH]c2ccc(C3CCNCC3)cc12 [Example 186, 2-(benzofuran-2-yl)-3-ethyl-5-(piperidin-4-yl)-1H-indole]
> 7.00 | 6.00 to 7.00 | > 7.00 | CNC(=O)CN1CCC(c2ccc3[nH]c(-c4cc(C)c5nccn5c4)c(C(C)C)c3c2)CC1 [Example 397, 2-(4-(3-isopropyl-2-(8-methylimidazo[1,2-a]pyridin-6-yl)-1H-indol-5-yl)piperidin-1-yl)-N-methylacetamide]
> 7.00 | 4.30 to 6.00 | > 7.00 | Cc1cc2ncnn2nc1-c1[nH]c2ccc(C3CCNCC3)cc2c1C(C)C [Example 31, 6-(3-isopropyl-5-(piperidin-4-yl)-1H-indol-2-yl)-7-methyl-[1,2,4]triazolo[1,5-b]pyridazine]
> 7.00 | 4.30 to 6.00 | 6.00 to 7.00 | Cc1nc2cc(-c3[nH]c4ccc(C5CCN(CC(=O)N(C)C)CC5)cc4c3C(C)C)ccn2n1 [Example 326, 2-(4-(3-isopropyl-2-(2-methyl-[1,2,4]triazolo[1,5-a]pyridin-7-yl)-1H-indol-5-yl)piperidin-1-yl)-N,N-dimethylacetamide]
> 7.00 | 6.00 to 7.00 | > 7.00 | CNC(=O)CN1CCC(c2ccc3[nH]c(-c4cc(C)n5cncc5c4)c(C(C)C)c3c2)CC1 [Example 440, 2-(4-(3-isopropyl-2-(5-methylimidazo[1,5-a]pyridin-7-yl)-1H-indol-5-yl)piperidin-1-yl)-N-methylacetamide]
4.30 to 6.00 | 6.00 to 7.00 | < 5.51 | CNCCN1CCC(c2ccc3[nH]c(-c4ccc5ncccc5c4)c(C)c3c2)CC1 [Example 666, N-methyl-2-(4-(3-methyl-2-(quinolin-6-yl)-1H-indol-5-yl)piperidin-1-yl)ethan-1-amine]
